Holding throughout (assay type): cell-based, HIV-1
For one assay, the system named is HIV-IIIb (wildtype). Briefly: Antiviral assay in MT4 cells, HIV-IIIb wildtype. Particulars: read-out: WT EC50. The essentials:
(§1)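 MT4 cells were pre-infected 3 h at 37 °C with HIV-IIIb (0.004 m.o.i.): wildtype, or IN T174I virus from breakthrough or from dose-escalation passaging. Cells (2000/well) were exposed to 10-point 3-fold compound dilutions in quadruplicate for 5 days at 37 °C. EC50 was the concentration giving 50% decrease in CellTiter-Glo luminescence.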

The next assay relates to HIV-IIIb IN T174I DE. Briefly: Antiviral assay in MT4 cells, HIV-IIIb IN T174I DE virus (from dose escalation passaging). A digest of the protocol: as §1
Another assay has as its system HIV-IIIb IN T174I BT. Briefly: Antiviral assay in MT4 cells, HIV-IIIb IN T174I BT virus (from viral breakthrough). The essentials:
as §1

Setting [1] is: Human immunodeficiency virus 1, IIIB, MT4, 120 h.
Setting [2] is: Human immunodeficiency virus 1, IIIB, MT4, 120 h, read-out: T174I DE EC50, MT4 cells, HIV-IIIb IN T174I DE (dose escalation), 5 days, CellTiter-Glo.
The mark [3] stands for this setting: Human immunodeficiency virus 1, IIIB, MT4, 120 h, read-out: T174I BT EC50, MT4 cells, HIV-IIIb IN T174I BT (viral breakthrough), 5 days, CellTiter-Glo.

pEC50: −log10 of the molar value. Like-named read-outs stand apart in the source and are kept apart here.

As a reminder, the pEC50 is the EC50 on a negative log10 scale, so that one unit is a factor of ten. Consider `CCn1nc(C2CCN(C3COC3)CC2)c2cc(-c3nc4cc(C)c([C@H](OC(C)(C)C)C(=O)O)c(-c5ccc(Cl)cc5)c4s3)ccc21` [Compound 35, (S)-2-(tert-butoxy)-2-(7-(4-chlorophenyl)-2-(1-ethyl-3-(1-(oxetan-3-yl)piperidin-4-yl)-1H-indazol-5-yl)-5-methylbenzo[d]thiazol-6-yl)acetic acid], for which the pEC50 is 8.40 in the assay with HIV-IIIb (wildtype) (setting [1]), 6.62 in the assay with HIV-IIIb IN T174I DE (setting [2]) and 7.08 in the assay on HIV-IIIb IN T174I BT (setting [3]).

`Cc1cc2nc(-c3ccc4c(c3)c(N3CCCN(C)CC3)nn4C)sc2c(-c2ccc(Cl)cc2)c1[C@H](OC(C)(C)C)C(=O)O` [Compound 132, (S)-2-(tert-butoxy)-2-(7-(4-chloro-phenyl)-5-methyl-2-(1-methyl-3-(4-methyl-1,4-diazepan-1-yl)-1H-indazol-5-yl)benzo[d]thiazol-6-yl)acetic acid]: the results for the pEC50 in the assay on HIV-IIIb (wildtype) (setting [1]), in the assay on HIV-IIIb IN T174I DE (setting [2]) and with HIV-IIIb IN T174I BT (setting [3]) were 7.60, 5.77 and 5.96, respectively.

`CCN1CCN(c2nn(C)c3ccc(-c4nc5cc(C)c([C@H](OC(C)(C)C)C(=O)O)c(-c6ccc(Cl)cc6)c5s4)cc23)CC1=O` [Compound 84, (S)-2-(tert-butoxy)-2-(7-(4-chlorophenyl)-2-(3-(4-ethyl-3-oxopiperazin-1-yl)-1-methyl-1H-indazol-5-yl)-5-methylbenzo[d]thiazol-6-yl)acetic acid]: the negative logarithm of the EC50 (pEC50) is 7.32 in the assay with HIV-IIIb (wildtype) (setting [1]), 5.73 in the assay on HIV-IIIb IN T174I DE (setting [2]) and 5.90 in the assay with HIV-IIIb IN T174I BT (setting [3]).

Take `CCN1CC(c2nn(C)c3ccc(-c4nc5cc(C)c([C@H](OC(C)(C)C)C(=O)O)c(-c6ccc(Cl)cc6)c5s4)cc23)C1` [Compound 58, (S)-2-(tert-butoxy)-2-(7-(4-chlorophenyl)-2-(3-(1-ethylazetidin-3-yl)-1-methyl-1H-indazol-5-yl)-5-methylbenzo[d]thiazol-6-yl)acetic acid]: the figures for the pEC50 in the assay with HIV-IIIb (wildtype) (setting [1]), in the assay on HIV-IIIb IN T174I DE (setting [2]) and with HIV-IIIb IN T174I BT (setting [3]) were 8.05, 5.51 and 5.71, respectively.

`CC(=O)N1CC(N2CCC(c3nn(C)c4ccc(-c5nc6cc(C)c([C@H](OC(C)(C)C)C(=O)O)c(-c7ccc(Cl)cc7)c6s5)cc34)CC2)C1` [Compound 30, (S)-2-(2-(3-(1-(1-acetylazetidin-3-yl)piperidin-4-yl)-1-methyl-1H-indazol-5-yl)-7-(4-chlorophenyl)-5-methylbenzo[d]thiazol-6-yl)-2-(tert-butoxy)acetic acid]: the pEC50 with HIV-IIIb (wildtype) (setting [1]) was 7.92; in the assay on HIV-IIIb IN T174I DE (setting [2]) it was 6.73; with HIV-IIIb IN T174I BT (setting [3]), 6.95.

Regarding `Cc1cc2nc(-c3ccc4c(c3)c(C3CCN(C(=O)C5(C)COC5)CC3)nn4C)sc2c(-c2ccc(Cl)cc2)c1[C@H](OC(C)(C)C)C(=O)O` [Compound 160, (S)-2-(tert-butoxy)-2-(7-(4-chloro-phenyl)-5-methyl-2-(1-methyl-3-(1-(3-methyloxetane-3-carbonyl)piperidin-4-yl)-1H-indazol-5-yl)benzo[d]thiazol-6-yl)acetic acid], the pEC50 is 7.82 in the assay with HIV-IIIb (wildtype) (setting [1]), 6.12 with HIV-IIIb IN T174I DE (setting [2]) and 6.43 in the assay on HIV-IIIb IN T174I BT (setting [3]).

Consider `Cc1cc2nc(-c3ccc4c(n3)c(C3CCN(C5COC5)CC3)nn4C3CC3)sc2c(-c2ccc(Cl)cc2)c1[C@H](OC(C)(C)C)C(=O)O` [Compound 178, (S)-2-(tert-butoxy)-2-(7-(4-chloro-phenyl)-2-(1-cyclo-propyl-3-(1-(oxetan-3-yl)piperidin-4-yl)-1H-pyrazolo[4,3-b]pyridin-5-yl)-5-methylbenzo[d]thiazol-6-yl) acetic acid], for which the negative logarithm of the EC50 (pEC50) was 8.40 in the assay on HIV-IIIb (wildtype) (setting [1]), 6.50 in the assay on HIV-IIIb IN T174I DE (setting [2]) and 6.92 in the assay with HIV-IIIb IN T174I BT (setting [3]).

Consider `Cc1cc2nc(-c3cnc4c(c3)c(C3CCN(C)CC3)cn4C)sc2c(-c2ccc(Cl)cc2)c1[C@H](OC(C)(C)C)C(=O)O` [Compound 106, (S)-2-(tert-butoxy)-2-(7-(4-chlorophenyl)-5-methyl-2-(1-methyl-3-(1-methylpiperidin-4-yl)-1H-pyrrolo[2,3-b]pyridin-5-yl)benzo[d]thiazol-6-yl)acetic acid], for which the pEC50 with HIV-IIIb (wildtype) (setting [1]) is 7.54; with HIV-IIIb IN T174I DE (setting [2]) it was 5.51; with HIV-IIIb IN T174I BT (setting [3]), 6.06.

On to `Cc1cc2nc(-c3ccc4c(n3)c(N3CCN(C5CS(=O)(=O)C5)CC3)nn4C)sc2c(-c2ccc(Cl)cc2)c1[C@H](OC(C)(C)C)C(=O)O` [Compound 198, (S)-2-(tert-butoxy)-2-(7-(4-chloro-phenyl)-2-(3-(4-(1,1-dioxidothietan-3-yl)piperazin-1-yl)-1-methyl-1H-pyrazolo[4,3-b]pyridin-5-yl)-5-methylbenzo[d]thiazol-6-yl) acetic acid], for which the pEC50 in the assay with HIV-IIIb (wildtype) (setting [1]) is 8.05; in the assay with HIV-IIIb IN T174I DE (setting [2]) it was 5.34; in the assay on HIV-IIIb IN T174I BT (setting [3]), 5.98.

“(S)-2-(tert-butoxy)- 2-(7-(4-chloro- phenyl)-2-(3-((R)- hexahydropyrazino [2,1-c][1,4]oxazin- 8(1H)-yl)-1-methyl- 1H-indazol-5-yl)- 5-methylbenzo[d] thiazol-6-yl)acetic acid [Compound 135]”: the pEC50 in the assay on HIV-IIIb (wildtype) (MT4 cells, HIV-IIIb wildtype, 5 days, CellTiter-Glo) was 8.00; in the assay on HIV-IIIb IN T174I DE (MT4 cells, HIV-IIIb IN T174I DE (dose escalation), 5 days, CellTiter-Glo, read-out: T174I DE EC50), 5.98; with HIV-IIIb IN T174I BT (MT4 cells, HIV-IIIb IN T174I BT (viral breakthrough), 5 days, CellTiter-Glo, read-out: T174I BT EC50) it was 6.40.

As for `CCn1nc(C2CCN([C@H]3CCN(C(=O)OC)C3)CC2)c2cc(-c3nc4cc(C)c([C@H](OC(C)(C)C)C(=O)O)c(-c5ccc(Cl)cc5)c4s3)ccc21` [Compound 49, (S)-2-(tert-butoxy)-2-(7-(4-chlorophenyl)-2-(1-ethyl-3-(1-((S)-1-(methoxycarbonyl)pyrrolidin-3-yl)piperidin-4-yl)-1H-indazol-5-yl)-5-methylbenzo[d]thiazol-6-yl)acetic acid], the pEC50 in the assay on HIV-IIIb (wildtype) (setting [1]) was 8.40; with HIV-IIIb IN T174I DE (setting [2]) it was 6.54; in the assay with HIV-IIIb IN T174I BT (setting [3]), 7.10.

In the case of `COC(=O)N1CC[C@H](N2CCC(c3nn(C)c4ccc(-c5nc6cc(C)c([C@H](OC(C)(C)C)C(=O)O)c(-c7ccc(Cl)cc7)c6s5)cc34)CC2)C1` [Compound 162, (S)-2-(tert-butoxy)-2-(7-(4-chloro-phenyl)-2-(3-(1-((S)-1-(methoxy-carbonyl)pyrrolidin-3-yl)piperidin-4-yl)-1-methyl-1H-indazol-5-yl)-5-methylbenzo[d]thiazol-6-yl) acetic acid], the pEC50 with HIV-IIIb (wildtype) (setting [1]) was 8.30; with HIV-IIIb IN T174I DE (setting [2]), 6.57; with HIV-IIIb IN T174I BT (setting [3]) it was 6.83.

Regarding `Cc1cc2nc(-c3ccc4c(c3)c(N3CC(N(C)C)C3)nn4C)sc2c(-c2ccc(Cl)cc2)c1[C@H](OC(C)(C)C)C(=O)O` [Compound 90, (S)-2-(tert-butoxy)-2-(7-(4-chlorophenyl)-2-(3-(3-(dimethylamino)azetidin-1-yl)-1-methyl-1H-indazol-5-yl)-5-methylbenzo[d]thiazol-6-yl)acetic Acid], the pEC50 in the assay with HIV-IIIb (wildtype) (setting [1]) was 8.10; in the assay on HIV-IIIb IN T174I DE (setting [2]) it was 5.87; in the assay on HIV-IIIb IN T174I BT (setting [3]), 5.93.

As to `Cc1cc2nc(-c3ccc4c(c3)c(N3CCC(C5COC5)CC3)nn4C)sc2c(-c2ccc(Cl)cc2)c1[C@H](OC(C)(C)C)C(=O)O` [Compound 146, (S)-2-(tert-butoxy)-2-(7-(4-chloro-phenyl)-5-methyl-2-(1-methyl-3-(4-(oxetan-3-yl)piperidin-1-yl)-1H-indazol-5-yl)benzo[d]thiazol-6-yl)acetic acid], the pEC50 in the assay on HIV-IIIb (wildtype) (setting [1]) was 7.51; in the assay on HIV-IIIb IN T174I DE (setting [2]), 5.65; in the assay on HIV-IIIb IN T174I BT (setting [3]) it was 5.76.

For `Cc1cc2nc(-c3ccc4c(c3)c(C3CCN(C5CN(C(=O)C6CC6)C5)CC3)nn4C)sc2c(-c2ccc(Cl)cc2)c1[C@H](OC(C)(C)C)C(=O)O` [Compound 152, (S)-2-(tert-butoxy)-2-(7-(4-chloro-phenyl)-2-(3-(1-(1-(cyclopropane-carbonyl)azetidin-3-yl)piperidin-4-yl)-1-methyl-1H-indazol-5-yl)-5-methylbenzo[d]thiazol-6-yl) acetic acid], the figures for the negative-log EC50 (pEC50) with HIV-IIIb (wildtype) (setting [1]), in the assay on HIV-IIIb IN T174I DE (setting [2]) and in the assay on HIV-IIIb IN T174I BT (setting [3]) were 7.64, 6.68 and 6.76, respectively.

As to `Cc1cc2nc(-c3ccc4c(c3)c(N3CCC(N5CCC5)CC3)nn4C)sc2c(-c2ccc(Cl)cc2)c1[C@H](OC(C)(C)C)C(=O)O` [Compound 136, (S)-2-(2-(3-(4-(azetidin-1-yl)piperidin-1-yl)-1-methyl-1H-indazol-5-yl)-7-(4-chlorophenyl)-5-methylbenzo[d]thiazol-6-yl)-2-(tert-butoxy) acetic acid], the pEC50 in the assay on HIV-IIIb (wildtype) (setting [1]) was 7.85; in the assay with HIV-IIIb IN T174I DE (setting [2]), 5.77; in the assay on HIV-IIIb IN T174I BT (setting [3]), 6.07.

As for `Cc1cc2nc(-c3ccc4c(c3)c(N3CC5(CN(C)C5)C3)nn4C)sc2c(-c2ccc(Cl)cc2)c1[C@H](OC(C)(C)C)C(=O)O` [Compound 89, (S)-2-(tert-butoxy)-2-(7-(4-chlorophenyl)-5-methyl-2-(1-methyl-3-(6-methyl-2,6-diazaspiro[3.3]heptan-2-yl)-1H-indazol-5-yl)benzo[d]thiazol-6-yl)acetic acid], the negative logarithm of the EC50 (pEC50) in the assay on HIV-IIIb (wildtype) (setting [1]) was 6.97; in the assay with HIV-IIIb IN T174I DE (setting [2]), 4.24; in the assay on HIV-IIIb IN T174I BT (setting [3]), 4.24.

Take `CC(=O)N1CC(N2CCC(c3cn(C)c4ncc(-c5nc6cc(C)c([C@H](OC(C)(C)C)C(=O)O)c(-c7ccc(Cl)cc7)c6s5)cc34)CC2)C1` [Compound 204, (S)-2-(2-(3-(1-(1-acetylazetidin-3-yl)piperidin-4-yl)-1-methyl-1H-pyrrolo[2,3-b]pyridin-5-yl)-7-(4-chlorophenyl)-5-methylbenzo [d]thiazol-6-yl)-2-(tert-butoxy) acetic acid]: the negative logarithm of the EC50 (pEC50) in the assay with HIV-IIIb (wildtype) (setting [1]) was 7.82; in the assay with HIV-IIIb IN T174I DE (setting [2]) it was 6.20; with HIV-IIIb IN T174I BT (setting [3]) it was 6.59.

The record behind these values is US10800772B2 (Gilead Sciences, Inc., priority 2016, dated 2020).
